Test results taken from patent publication US11149033B2, “Heteroaryl compound, enantiomer, diastereomer or pharmaceutically acceptable salt thereof, and antiviral composition containing same as active ingredient” (priority 2016, dated 2021).
pEC50: −log10 of the molar value. Where two headings read alike, the source gives them in different places.

Key:
[1] = test system: B/Florida/04/2006; test: Antiviral activity (drug efficacy evaluation by concentration) against B/Florida/04/2006; assay type: cell-based, B type influenza virus
[2] = test system: A/California/07/2009 (H1N1); test: Antiviral activity (drug efficacy evaluation by concentration) against A/California/07/2009 (H1N1); assay type: cell-based, A type influenza virus; details: Influenza A virus
[3] = test system: A/Perth/16/2009 (H3N2); test: Antiviral activity (drug efficacy evaluation by concentration) against A/Perth/16/2009 (H3N2); assay type: cell-based, A type influenza virus; details: Influenza A virus
[4] = in vitro
[5] = CC50, third EC50/CC50 column pair (c7), beside the EC50 of c6
[6] = read-out: EC50 B/Florida/04/2006, B/Florida/04/2006
[7] = H1N1, A/California/07/2009 (H1N1), read-out: EC50 A/California/07/2009 (H1N1)
[8] = H3N2, A/Perth/16/2009 (H3N2), read-out: EC50 A/Perth/16/2009 (H3N2)
[9] = CC50 B/Florida/04/2006, cytotoxicity in the B/Florida/04/2006 assay

| Compound | pEC50 [1] | pEC50 ([2]; H1N1, read-out: EC50) | pEC50 ([3]; H3N2, read-out: EC50) | melting point | CC50 ([4]; CC50, beside the EC50 of c2) | CC50 ([4]; CC50, beside the EC50 of c4) | CC50 [4, 5] | pEC50 [1, 6] | pEC50 [2, 7] | pEC50 [3, 8] | CC50 [4, 9] |
| --- | --- | --- | --- | --- | --- | --- | --- | --- | --- | --- | --- |
| Brc1ccc(Nc2nnc(/C=C/c3ccccc3C3CCCCC3)o2)cc1 [Compound 116, (E)-N-(4-bromophenyl)-5-(2-cyclohexylstyryl)-1,3,4-oxadiazol-2-amine] | 4.46 | 4.44 | 4.45 | 228.3 °C | > 50 µM | > 50 µM |  |  |  |  |  |
| Brc1ccc(Cc2nnc(/C=C/c3ccccc3Oc3ccccc3)o2)cc1 [Compound 127, (E)-2-(4-bromobenzyl)-5-(2-phenoxystyryl)-1,3,4-oxadiazole] | 4.80 | 4.46 | 4.61 | 125.5 °C | > 50 µM | > 50 µM | > 50 µM |  |  |  |  |
| Cc1nn(Cc2nnc([S+]([O-])Cc3ccccc3-c3ccccc3)o2)c(C)c1Br (stereo not drawn) [Compound 12, 2-(([1,1′-biphenyl]-2-ylmethyl)sulfinyl)-5-((4-bromo-3,5-dimethyl-1H-pyrazol-1-yl)methyl)-1,3,4-oxadiazole] |  |  |  | 48.2 °C |  |  |  | 5.58 | 5.60 | 5.49 | 7.81 µM |
| O=C(c1ccccc1)c1nnc(Cc2ccc(Br)cc2)o1 [Compound 64, (5-(4-bromobenzyl)-1,3,4-oxadiazol-2-yl)(phenyl)methanone] |  |  |  | 139.9 °C |  |  |  | 4.39 | 5.22 | < 4.30 | > 50 µM |
| Cc1ccccc1/C=C/c1nnc(Cc2ccc(Br)cc2)o1 [Compound 170, 2-(4-bromobenzyl)-5-(2-methylstyryl)-1,3,4-oxadiazole] | 5.69 | 5.70 | 5.69 | 108.5 °C | 8.53 µM | 6.63 µM | 9.08 µM |  |  |  |  |
| Brc1ccc(Cc2noc(/C=C/c3ccccc3)n2)cc1 [Compound 174, (E)-3-(4-bromobenzyl)-5-styryl-1,2,4-oxadiazole] | 5.84 | 5.42 | 5.81 | 86.7 °C | 6.53 µM | 5.46 µM | 6.3 µM |  |  |  |  |
| Cc1cc(C(F)(F)F)ccc1/C=C/c1nnc(Cc2cccc(Br)c2)o1 [Compound 198, 2-(3-bromobenzyl)-5-(2-methyl-4-(trifluoromethyl)styryl)-1,3,4-oxadiazole] | 4.32 | 4.45 | < 4.30 | 116 °C | > 50 µM | > 50 µM | > 50 µM |  |  |  |  |
| CC(=O)c1ccccc1CSc1nnc(Cn2nc(C)c(Br)c2C)o1 [Compound 28, 1-(2-(((5-((4-bromo-3,5-dimethyl-1H-pyrazol-1-yl)methyl)-1,3,4-oxadiazol-2-yl)thio)methyl)phenyl)ethan-1-one] |  |  |  | 63.7 °C |  |  |  | < 4.30 | < 4.30 | < 4.30 | > 50 µM |
| Fc1ccc(/C=C/c2nnc(Cc3ccccc3)o2)c(Cl)c1 [Compound 158, (E)-2-benzyl-5-(2-chloro-4-fluorostyryl)-1,3,4-oxadiazole] | < 4.30 | < 4.30 | < 4.30 | 125.9 °C | > 50 µM | > 50 µM | > 50 µM |  |  |  |  |
| Cc1ccc(/C=C/c2nnc(Cc3cccc(Br)c3)o2)c(C)c1 [Compound 200, 2-(3-bromobenzyl)-5-(2,4-dimethylstyryl)-1,3,4-oxadiazole] | 4.99 | 4.93 | 4.92 | 74.2 °C | > 50 µM | > 50 µM | > 50 µM |  |  |  |  |
| CC(C)c1cccc(/C=C/c2nnc(Cc3ccc(Br)cc3)o2)c1 [Compound 151, 2-(4-bromobenzyl)-5-(3-isopropylstyryl)-1,3,4-oxadiazole] | 5.19 | 4.67 | 5.20 | 61.8 °C | > 50 µM | > 50 µM | > 50 µM |  |  |  |  |
| Brc1ccc(Cc2nnc(/C=C/c3ccccc3C3CCCCC3)o2)cc1 [Compound 111, 2-(4-bromobenzyl)-5-(2-cyclohexylstyryl)-1,3,4-oxadiazole] | 4.38 | 4.50 | 4.47 | 117.1 °C | 32.5 µM | > 50 µM | > 50 µM |  |  |  |  |
| Clc1ccc(/C=C/c2nnc(Cc3cccc(Br)c3)o2)c(Cl)c1 [Compound 192, 2-(3-bromobenzyl)-5-(2,4-dichlorostyryl)-1,3,4-oxadiazole] | 5.26 | 5.33 | 5.59 | 142.4 °C | > 50 µM | > 50 µM | > 50 µM |  |  |  |  |
| Cc1nn(Cc2nnc(SCc3ccccc3Oc3ccccc3)o2)c(C)c1Br [Compound 29, 2-((4-bromo-3,5-dimethyl-1H-pyrazol-1-yl)methyl)-5-((2-phenoxybenzyl)thio)-1,3,4-oxadiazole] |  |  |  | 92.3 °C |  |  |  | 5.70 | 5.92 | 5.85 | 5.23 µM |
| O=S(=O)(Cc1ccccc1-c1ccccc1)c1nnc(Cc2ccc(Br)cc2)o1 [Compound 60, 2-(([1,1′-biphenyl]-2-ylmethyl)sulfonyl)-5-(4-bromobenzyl)-1,3,4-oxadiazole] |  |  |  | 134.2 °C |  |  |  | 5.39 | 4.92 | 5.20 | 8.46 µM |
| [O-][S+](Cc1ccccc1-c1ccccc1)c1nnc(Nc2ccc(Br)cc2)o1 (stereo not drawn) [Compound 63, 5-(([1,1′-biphenyl]-2-ylmethyl)sulfinyl)-N-(4-bromophenyl)-1,3,4-oxadiazol-2-amine] |  |  |  | 199 °C |  |  |  | 5.15 | 5.58 | 5.22 | > 14.6 µM |
| Cc1ccc(Cc2nnc(/C=C/c3ccc(F)cc3Cl)o2)cc1Br [Compound 181, (E)-2-(3-bromo-4-methylbenzyl)-5-(2-chloro-4-fluorostyryl)-1,3,4-oxadiazole] | 5.08 | 4.96 | 5.25 | 139 °C | > 50 µM | > 50 µM | > 50 µM |  |  |  |  |
| CC(C)c1ccccc1CCc1nnc(Nc2ccc(Br)cc2)o1 [Compound 84, N-(4-bromophenyl)-5-(2-isopropylphenethyl)-1,3,4-oxadiazol-2-amine] | < 4.30 | 4.46 | 4.38 | 175.4 °C | > 50 µM | > 50 µM | > 50 µM |  |  |  |  |
| Clc1ccc(/C=C/c2nnc(Cc3ccc(Br)cc3)o2)cc1 [Compound 171, 2-(4-bromobenzyl)-5-(4-chlorostyryl)-1,3,4-oxadiazole] | 5.37 | 5.43 | 5.44 | 129 °C | > 50 µM | 49.5 µM | 36.2 µM |  |  |  |  |
| Fc1ccc(/C=C/c2nnc(Cc3cccc(Br)c3)o2)cc1F [Compound 191, 2-(3-bromobenzyl)-5-(3,4-difluorostyryl)-1,3,4-oxadiazole] | 4.88 | 5.08 | 5.30 | 112.8 °C | > 50 µM | > 50 µM | > 50 µM |  |  |  |  |
| Cc1ccccc1Sc1nnc(Cn2nc(C)c(Br)c2C)o1 [Compound 53, 2-((4-bromo-3,5-dimethyl-1H-pyrazol-1-yl)methyl)-5-(o-tolylthio)-1,3,4-oxadiazole] |  |  |  | 103.6 °C |  |  |  | 5.05 | 6.92 | 5.07 | 7.91 µM |
| Cc1ccccc1CCc1nnc(Nc2ccc(C(F)(F)F)cc2)o1 [Compound 123, 5-(2-methylphenethyl)-N-(4-(trifluoromethyl)phenyl)-1,3,4-oxadiazol-2-amine] | 4.96 | 4.85 | 5.44 | 164.5 °C | 35 µM | > 50 µM | > 50 µM |  |  |  |  |
| Cc1ccc(F)c(Cc2nnc(/C=C/c3ccc(F)cc3Cl)o2)c1 [Compound 177, (E)-2-(2-chloro-4-fluorostyryl)-5-(2-fluoro-5-methylbenzyl)-1,3,4-oxadiazole] | 5.97 | 6.08 | 6.12 | 136.9 °C | > 50 µM | > 50 µM | > 50 µM |  |  |  |  |
| c1ccc(Nc2nnc(SCc3ccccc3-c3ccccc3)o2)cc1 [Compound 71, 5-(([1,1′-biphenyl]-2-ylmethyl)thio)-N-phenyl-1,3,4-oxadiazol-2-amine] |  |  |  | 172.1 °C |  |  |  | 4.64 | 4.68 | 4.85 | 6.53 µM |
| CC(C)c1ccccc1/C=C/c1nnc(Cc2cccc(Br)c2)o1 [Compound 130, 2-(3-bromobenzyl)-5-(2-isopropylstyryl)-1,3,4-oxadiazole] | 4.44 | 4.37 | 4.48 | 79.3 °C | > 50 µM | > 50 µM | > 50 µM |  |  |  |  |
| Brc1ccc(Cc2nnc(/C=C/c3ccccc3)o2)cc1 [Compound 165, 2-(4-bromobenzyl)-5-styryl-1,3,4-oxadiazole] | 5.55 | 5.71 | 5.42 | 110.6 °C | 12.6 µM | 13.5 µM | 10.1 µM |  |  |  |  |
